These results are taken from PubChem BioAssay (NCI).

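Five compound concentrations were applied to cells in 96-well plates for 48 hours; endpoints were derived by simple linear interpolation of the resulting dose-response curve. GI50 marks 50% less growth. Definition used: TGI = concentration required for complete inhibition of growth.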

Holding throughout (test): DTP human tumour cell line panel, 48 h
The test system of assay [1] is MCF7 breast.
In assay [2] the test system is MDA-MB-231 breast.
The test system of assay [3] is MDA-MB-435.
Assay [4] has as its system MDA-N.
In assay [5] the test system is NCI-H460 lung.
Assay [6] has as its system RPMI-8226 leukemia.
Assay [7] relates to SF-295 CNS.
The subject of assay [8] is SK-MEL-5 melanoma.
In assay [9] the test system is SN12C renal.
In assay [10] the test system is CAKI-1 renal.

In the case of `CCOc1ncn(-c2ccc(NC(=S)NC3OC(CO)C(O)C(O)C3O)cc2)n1` (stereo not drawn), the TGI in assay [1], in [2], in assay [3], in assay [4], in assay [5] and in [6] was over 100 µM in each case. Further, the TGI in [7], in [8] and in assay [9] was over 100 µM throughout.
Take `CCc1cc(Cc2cc(CC)c(NC(=O)C(=O)CC(=O)c3sc(-c4cccnc4)nc3C)c(CC)c2)cc(CC)c1NC(=O)C(=O)CC(=O)c1sc(-c2cccnc2)nc1C`: the TGI in assay [1], in assay [2], in [3], in assay [4], in assay [5] and in [6] was over 100 µM throughout. Also, the TGI in [7], in assay [8] and in assay [9] was over 100 µM throughout.
Consider `O=C1NC(=S)NC(=O)C1C(c1ccc(O)cc1)C1C(=O)NC(=S)NC1=O`, for which the TGI in [10], in assay [1], in assay [2], in [3], in [4] and in assay [5] was over 100 µM in each case. In addition, the TGI in assay [6], in assay [7], in assay [8] and in assay [9] was over 100 µM throughout.
As for `C[C@@H]1Nc2cc(NC(=O)OCCF)nc(N)c2N=C1c1ccccc1`, the GI50 in assay [10] and in assay [1] was under 0.0001 µM in each case. The TGI (usually the concentration at which net growth stops) in [1] is over 100 µM; in [3], under 0.0001 µM; in assay [4], under 0.0001 µM; in [6] it was under 0.0001 µM; in assay [7] it was 20.1 µM; in assay [8], under 0.0001 µM. The TGI in assay [9] was over 100 µM.
Turning to `CC(C)=C[C@H]1CCC2(OCCO2)[C@]1(C)COCc1ccccc1`, the TGI in [10] was over 100 µM; in assay [1], over 100 µM; in assay [2], 53.7 µM; in assay [3], over 100 µM; in assay [4] it was over 100 µM; in assay [5], 59 µM. Besides, the TGI in assay [6] is 41.9 µM; in [7] it was over 100 µM; in assay [8] it was 32 µM; in assay [9], 68.5 µM.
Turning to `CCOC(=O)Cc1nc2cc(F)c(F)cc2[nH]c1=O`, the TGI in assay [10], in [1], in assay [2], in assay [3], in assay [4] and in assay [5] was over 100 µM in each case. Moreover, the TGI in assay [6], in [7], in [8] and in [9] was over 100 µM each time.
Consider `O=c1cc(N2CCCC2)[nH]c(=O)n1-c1cccc(Cl)c1`, for which the TGI in assay [10], in assay [1], in assay [2], in [3], in assay [4] and in [5] was over 100 µM throughout. The TGI in assay [6], in assay [7] and in assay [9] was over 100 µM throughout.
On to `O=C(c1cccs1)N1CCc2ccccc2C1`, for which the TGI in assay [10] is over 100 µM; in assay [1], over 100 µM; in [2] it was over 100 µM; in assay [3], over 100 µM; in [4] it was 92.3 µM; in [5], over 100 µM. Moreover, the TGI in assay [6], in assay [7], in assay [8] and in assay [9] was over 100 µM each time.
As to `CN(C(=O)Cc1cccc(N=C=S)c1)[C@H]1CCCC[C@@H]1N1CCCC1`, the TGI in assay [10] is 29.5 µM; in assay [1], 27.5 µM; in assay [2], 31.8 µM; in [3], 27.8 µM; in assay [4], 27.7 µM; in [5] it was 36.3 µM. The TGI is 32.3 µM in [6], over 100 µM in [7], 20.4 µM in assay [8] and 29.5 µM in assay [9].
In the case of `CC(=O)[C@@H](C)C(=O)N1C(=O)OC[C@@]12[C@@H]1CC[C@@H](C1)C2(C)C`, the TGI in assay [10], in [1], in assay [2], in assay [3], in [4] and in [5] was over 100 µM each time. For the same compound, the TGI in assay [6], in [7], in assay [8] and in [9] was over 100 µM throughout.
`O=c1c2ccccc2nc(Cc2nc(-c3ccc(Cl)cc3)cs2)n1-c1ccc(Cl)cc1`: the TGI in [10], in assay [1], in [2], in assay [3], in [4] and in assay [5] was over 100 µM throughout. Moreover, the TGI in assay [6] was 83.9 µM; in assay [7], over 100 µM; in assay [8], over 100 µM.
Take `CCCCC1Cc2ccccc2-c2nc3ccccc3n21` (stereo not drawn): the TGI in assay [10] worked out at 31.9 µM; in assay [1] it was 32.9 µM; in assay [2] it was 31.7 µM; in [3], 37.1 µM; in [4], 29.2 µM; in [5], 28.8 µM. For the same compound, the TGI in [6] was 32.5 µM; in assay [7], 30.8 µM; in [8], 31.1 µM.
For `CC1S/C(=N\N=C2/C(=O)Nc3ccc(Br)cc32)N(C2CCCCC2)C1=O` (stereo not drawn), the TGI in assay [10] was 6.39 µM; in assay [1], 35 µM; in [2], 6.76 µM; in assay [3] it was 23.1 µM; in assay [4] it was over 100 µM; in assay [5], 18.8 µM. The TGI in [6] is over 100 µM; in [7], 16.8 µM; in assay [8], over 100 µM; in assay [9], 12.3 µM.
`CCOC(=O)c1ccc(NCc2ccc3oc(=O)c(-c4ccccc4)nc3c2)cc1`: the concentration for total growth inhibition (TGI) in [10] was 52.5 µM; in assay [1], 38 µM; in assay [2] it was over 100 µM; in [3], 32.7 µM; in assay [4], 50.8 µM; in [5], over 100 µM. Besides, the TGI was over 100 µM in [7], 45.2 µM in assay [8] and over 100 µM in [9].
Take `CCOC1=NC(O)c2cccn2-c2sccc21` (stereo not drawn): the TGI in assay [10], in [1], in assay [2], in [3], in [4] and in assay [5] was over 100 µM throughout. Further, the TGI in [6], in [7], in assay [8] and in assay [9] was over 100 µM in each case.
In the case of `Clc1ccc(-c2cc3nc4ccccc4nc3o2)cc1`, the TGI in [10], in [1], in [2], in [3], in assay [4] and in assay [5] was over 100 µM in each case. The TGI in [6], in [7] and in assay [8] was over 100 µM in each case.
Turning to `CC(C)=CCC(O)[C@](C)(O)[C@H]1[C@H](O)C[C@@]2(C)[C@@H]3CCc4cc(O)c(OC5OC(CO)C(O)C(O)C5O)cc4C3(C)C(=O)C[C@]12C` (stereo partly drawn), the TGI in [10], in assay [1], in [2], in assay [3], in assay [4] and in [5] was over 100 µM in each case. The TGI in assay [7], in [8] and in assay [9] was over 100 µM each time.
With `CSc1cc(Cl)c(C)cc1S(=O)(=O)NC(=O)NNc1cccc(C(F)(F)F)n1`, the TGI in [10], in assay [1], in [2], in assay [3], in assay [4] and in assay [5] was over 100 µM each time. Moreover, the TGI in assay [7], in assay [8] and in [9] was over 100 µM in each case.
`Cc1ccc2c(c1)CC1(Cc3ccccc3C1=O)C2=O` (stereo not drawn): the total growth inhibition concentration (TGI) in [1], in [2], in assay [3], in [4], in assay [5] and in [6] was over 100 µM each time. In addition, the TGI in assay [7], in [8] and in assay [9] was over 100 µM each time.
As to `CCO/C=N\C1=C(C#N)SC2=N/C(=C\c3ccc(OC)cc3)C(=O)N21`, the TGI in assay [10], in [1], in [2], in [3], in assay [4] and in [6] was over 100 µM in each case. Moreover, the TGI in assay [7], in [8] and in assay [9] was over 100 µM each time.
With `COc1cc(OC)c2c(C)cc(=O)oc2c1`, the TGI in assay [1], in assay [2], in assay [3], in assay [4], in [6] and in assay [7] was over 100 µM in each case. Further, the TGI in assay [8] and in [9] was over 100 µM each time.
For the compound `CC(=O)OC1C(Oc2c(C)cc3c(c2O)[C@@H](C)CC[C@@H]3[C@@H](C)CCC=C(C)C)OCC(O)C1O` (stereo partly drawn), the TGI was 36 µM in assay [10]; 42.5 µM in assay [1]; 38.7 µM in assay [2]; 28.1 µM in assay [3]; 36 µM in assay [4]; 33.2 µM in assay [5]. Also, the values for the TGI in assay [7], in assay [8] and in assay [9] were 35.3 µM, 32.1 µM and 32.2 µM, respectively.
Turning to `C(/C=C/Nc1ccc(Oc2ccccc2)cc1)=Nc1ccc(Oc2ccccc2)cc1`, the TGI in assay [10] worked out at 32.7 µM; in assay [1], 31.1 µM; in assay [2], 31.1 µM; in [3] it was 31.7 µM; in assay [4] it was 29.7 µM; in [5] it was 30.6 µM. Moreover, the values for the TGI in assay [6], in assay [7] and in assay [9] were 54.1 µM, 29.4 µM and 27.9 µM, respectively.
For `N#C/C(=C/NC(N)=S)C(N)=O`, the TGI in assay [10], in assay [1], in [2], in assay [3], in assay [4] and in [5] was over 100 µM in each case. For the same compound, the TGI in assay [7], in assay [8] and in assay [9] was over 100 µM each time.
On to `CC(CC[C@@]1(C)C(=O)CCC2O[C@]21C)[C@H]1C[C@@H](c2ccoc2)OC1=O` (stereo partly drawn), for which the TGI in assay [10] was 71.8 µM; in assay [1], over 100 µM; in assay [3] it was over 100 µM; in assay [4], over 100 µM; in assay [5], over 100 µM; in assay [6], 88.7 µM. Also, the TGI is over 100 µM in [7], over 100 µM in [8] and 79.9 µM in assay [9].
On to `O=C(c1ccco1)N(C(=S)OCCOc1ccccc1)c1ccccc1`, for which the TGI in assay [10] was 48.4 µM; in assay [1] it was 42.8 µM; in [2], 30.6 µM; in [3], 29.7 µM; in assay [4] it was 33.9 µM; in [5], 58.6 µM. The TGI in assay [6] is 47.2 µM; in [7], 36.6 µM; in assay [9], 39.1 µM.
For `C1=Cc2cc3c(c4nccc(c24)N1)OCO3`, the TGI in assay [10] is over 32.1 µM; in [1], 16.1 µM; in [2], over 64.7 µM; in assay [3], over 56.1 µM; in assay [4], 24.2 µM; in [5], over 30.6 µM. In addition, the TGI was over 65.9 µM in [6], 22.3 µM in assay [7] and over 39.2 µM in assay [9].
Turning to `Cn1c([C@H](C#N)c2ncccc2[N+](=O)[O-])nc2ccccc21`, the TGI in [10], in assay [1], in assay [2], in assay [3], in assay [4] and in [5] was over 100 µM in each case. Also, the concentration for total growth inhibition (TGI) in assay [6] and in assay [7] was over 100 µM in each case.
